Source: US20210113501A1, “METHOD OF ADMINISTERING BETA-HYDROXY-BETA-METHYLBUTYRATE (HMB)” (Metabolic Technologies, Inc., priority 2009, published 2021)

Experiments:
Format in all cases: in vivo, human
[1] = Comparison of the CaHMB and HMB-acid strength studies; details: comparison of two separate studies
Method: A study was conducted to examine the effects of CaHMB on strength. A second study was conducted to examine the effects of HMB-acid on strength. The results of these studies were then compared to determine the improved efficacy of HMB-acid over CaHMB on increasing strength gains.
Thirty-two male volunteers 19-22 yr of age were selected for the study. Body weight averaged 99.3±3.4 kg with a range of 72-136 kg and height was 185±1.5 cm with a range of 170-198 cm. Almost all subjects were engaged in some form of exercise program before the study.
Body composition was measured with TOBEC except that all subjects were measured after an overnight fast. Measurements were made on the Friday morning before the start of the experiment and each Friday thereafter. Strength measurements were made the week before the study and consisted of three standard strength measurements: the bench press, the squat, and the hang clean. Treatments and exercise regimens were started on Monday. The exercise regimen consisted of weight training 6 day s/wk, which included work on all major muscle groups, and lasted from 2 to 3 h/day. Aerobic training was also included in the exercise workout at least three times per week. […]
Differences between the two treatment groups were determined with at-test. […] Trends were determined for 0.05<P<0.11, and differences were considered not significant for P>0.11. […]

[2] = 12-week periodized resistance-training study of HMB-FA: strength and power
From the text: The current study was a randomized, double-blind, placebo- and diet-controlled experiment consisting of a 12-week-periodized resistance-training program. The training protocol was divided into three phases and consisted of a non-linear-periodized resistance-training program for the first 8 weeks, followed by a 2-week overreaching cycle, and finally a 2-week taper of the training volume. Muscle mass, body composition, strength, power, resting plasma testosterone, cortisol, and creatine kinase (CK) levels were examined collectively at the end of weeks 0, 4, 8, and 12 to assess the chronic effects of HMB; these measures were also assessed at the end of weeks 9 and 10, corresponding to the mid- and endpoints of the phase 2 overreaching cycle.
Twenty-four resistance-trained males were tested and included in the study. Subjects were organized into quartile blocks based on their LBM and strength. Following this, each quartile was randomized to one of the treatment groups using computer-generated random numbers. After treatment assignment, the groups were assessed to confirm there were no differences between groups. Of those randomized to the treatments, three subjects dropped from the placebo group, two because of injury and one because of the time commitment, while one dropped from the HMB-FA group due to injury. All drop outs occurred during the first 4 weeks of the study. The remaining 20 subjects (21.6±0.5 years of age) consisting of nine placebo (87.1±4.8 kg; 180.9 cm) and 11 supplemented (83.1±2.8 kg; 179.0±2.1) males with an average squat, bench press, and deadlift of 1.7±0.04, 1.3±0.04, and 2.0±0.05 times their bodyweight, respectively, completed the study. There were no significant differences for age, body weight, height, or BMI between the treatment groups at the start of the study
Strength was assessed via a one-repetition maximum (1-RM) testing of the back squat, bench press, and deadlift. The intraclass correlation coefficient (ICC) for the test-retest of strength in the squat, bench press, and deadlift ranged from r=0.956 to 0.982. Body composition [LBM, fat mass (FM), and total mass] was determined on a Lunar Prodigy dual X-ray absorptiometry (DXA) apparatus (software version, enCORE 2008, Madison, Wis., USA). Tests for the DXA were performed at the same time of day in a fasted state and the ICC was r=0.981. Skeletal muscle hypertrophy was assessed via changes in ultrasonography (GE Logiq e 2008, Wauwatosa, Wis., USA) determined combined muscle thickness of the vastus lateralis (VL) and vastus intermedius (VI) muscles. The ICC for the test-retest of muscle thickness measurements was r=0.975.
Peak power (PP) was assessed during maximal cycling (modified Wingate test) and jumping movements. During the cycling test, the volunteer was instructed to cycle against a predetermined resistance (7.5% of body weight) as fast as possible for 10 s on a cycle ergometer (Monark model 894e, Vansbro, Sweden). Wingate PP was recorded using Monark anaerobic test software (Version 1.0, Monark, Vansbro, Sweden). From completion of Wingate tests performed over several days, the ICC for Wingate PP was 0.966.
Measurements of PP for the vertical jump were also taken on a multicomponent AMTI force platform (Advanced Mechanical Technology, Watertown, Mass. USA) which interfaced with a personal computer at a sampling rate of 1,000 Hz). Data acquisition software (LabVIEW, version 7.1; National Instruments Corporation, Austin, Tex., USA) was used to calculate vertical jump PP. The ICC for VJ PP was 0.971.
Prior to the study, participants were randomly assigned to receive either 3 g per day of HMB-FA or a placebo divided equally into three servings. Each serving was formulated with 1 g of HMB-FA. The first serving was given 30 min prior to exercise and the remaining two servings given with the mid-day and evening meals. On the non-training days, participants were instructed to consume one serving with each of three separate meals throughout the day. […]

[3] = Example 3: plasma HMB with probiotic supplementation; details: 0.8 g HMB-FA vs 1.0 g CaHMB; before and after 14 days of probiotic
Method: A study was conducted to examine the bioavailability of HMB-acid and CaHMB when also administering a probiotic. Six volunteers were tested before and after two weeks of probiotic supplementation. Between trials, each volunteer took one dose of probiotics (BC^30) every morning for 14 days. At each trial, baseline plasma HMB levels were measured, then gave each volunteer one serving of HMB (1.0 g of CaHMB or 0.8 g of HMB-FA). Plasma HMB levels were measured at 2, 5, 10, 15, 25, 35, 45, 60, 90, 120, 150, and 180 min, as well as at 6, 12, and 24 hours.

[4] = after 12 weeks of training, 3 g per day

CC(C)(O)CC(=O)O [HMB-acid, 3-hydroxy-3-methylbutyric acid]
net percent increase per week in squat and bench press, greater than with CaHMB [1]: ~80% | increase in vertical jump power ([2]; after 12 weeks): 19% | strength increase, bench press [2, 4]: 12% | strength increase, deadlift [2, 4]: 16% | strength increase, squat [2, 4]: 25% | strength increase, total strength [2, 4]: 18% | increase in Wingate peak power ([2]; over the 12-week study): 18% | total strength increase ([2]; over the 12-week study, 3 g per day): 77.1 ± 18.4 kg | time to peak plasma HMB, retention and bioavailability versus CaHMB [3]: faster time to peak plasma levels, greater retention of HMB, and improved bioavailability
